Assay results reported in US7846959B2, “Raf modulators and methods of use” (Exelixis, Inc., priority 2004, dated 2010).
pIC50: −log10 of the molar value.

Tests used:
c-Raf = c-Raf (Homo sapiens, UniProt P04049); assay: Luciferase-coupled chemiluminescence kinase assay (ATP consumption), c-Raf; assay type: biochemical; details: read-out: cRaf-1 IC50
Method: (§1) Tyrosine kinase activity is determined by 1) measurement of kinase-dependent ATP consumption by in the presence of a generic substrate such as […], tyrosine (pEY), by luciferase/luciferin-mediated chemiluminescence or; 2) incorporation of radioactive phosphate derived from ^33P-ATP into a generic substrate which has been adsorbed onto the well surface of polystyrene microtiter plates. Phosphorylated substrate products are quantified by scintillation spectrometry.
(§2) Luciferase-Coupled Chemiluminescence Assay Protocol
(§3) Kinase activity is measured as the percent of ATP consumed following the kinase reaction using luciferase-luciferin-coupled chemiluminescence. Reactions were conducted in 384-well white, medium binding microtiter plates (Greiner). Kinase reactions were initiated by combining test compounds, ATP and kinase in a 20 uL volume. The reaction mixture was incubated at ambient temperature for 3 hrs. For c-Raf, B-Raf, and B-RafV599E, […] of the enzyme was pre-incubated with compound in 20 mM Tris pH 7.5, 10 mM MgCl2, 0.03% TX-100, and 1 mM DTT for 30 minutes at room temperature. Following the kinase reaction, a 20 μL aliquot of luciferase-luciferin mix was added and the chemiluminescence signal measured using a Victor^2 plate reader (Perkin Elmer). The luciferase-luciferin mix contained 50 mM HEPES, pH 7.8, 67 mM oxalic acid (pH 7.8), 5 (or 50) mM DTT, 0.4% Triton X-100, 0.25 mg/mL coenzyme A, 63 μM AMP, 28 μg/mL luciferin and 40,000 units/mL luciferase. Total ATP consumption was limited to 25-60% and the IC50 values correlate well with those determined by radiometric assays.

B-Raf = B-Raf (Homo sapiens, UniProt P15056); assay: Luciferase-coupled chemiluminescence kinase assay (ATP consumption), B-Raf; assay type: biochemical; details: read-out: bRaf IC50
B-Raf, sequence (P15056 whole entry): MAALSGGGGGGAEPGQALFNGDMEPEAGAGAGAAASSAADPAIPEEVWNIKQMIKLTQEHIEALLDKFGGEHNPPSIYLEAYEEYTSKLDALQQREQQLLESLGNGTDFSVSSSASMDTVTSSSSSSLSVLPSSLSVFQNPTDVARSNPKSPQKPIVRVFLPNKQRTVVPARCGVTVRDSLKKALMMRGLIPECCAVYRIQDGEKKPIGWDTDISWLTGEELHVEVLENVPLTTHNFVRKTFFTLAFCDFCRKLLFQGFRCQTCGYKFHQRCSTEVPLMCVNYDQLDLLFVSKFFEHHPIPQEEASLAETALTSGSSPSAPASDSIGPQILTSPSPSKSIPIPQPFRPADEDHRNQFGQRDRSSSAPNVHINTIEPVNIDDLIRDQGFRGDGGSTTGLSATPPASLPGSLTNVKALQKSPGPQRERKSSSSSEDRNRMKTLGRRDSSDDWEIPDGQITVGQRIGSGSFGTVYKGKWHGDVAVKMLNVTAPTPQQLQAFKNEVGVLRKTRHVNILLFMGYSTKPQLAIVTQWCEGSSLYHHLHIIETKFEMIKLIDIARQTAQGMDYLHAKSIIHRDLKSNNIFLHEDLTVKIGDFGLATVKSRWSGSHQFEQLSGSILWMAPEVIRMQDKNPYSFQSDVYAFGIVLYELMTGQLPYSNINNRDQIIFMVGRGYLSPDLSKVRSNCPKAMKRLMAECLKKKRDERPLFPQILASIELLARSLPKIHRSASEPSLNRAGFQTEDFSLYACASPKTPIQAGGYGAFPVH
Method: as §1, §2, §3

c-Raf, sequence (P04049 whole entry): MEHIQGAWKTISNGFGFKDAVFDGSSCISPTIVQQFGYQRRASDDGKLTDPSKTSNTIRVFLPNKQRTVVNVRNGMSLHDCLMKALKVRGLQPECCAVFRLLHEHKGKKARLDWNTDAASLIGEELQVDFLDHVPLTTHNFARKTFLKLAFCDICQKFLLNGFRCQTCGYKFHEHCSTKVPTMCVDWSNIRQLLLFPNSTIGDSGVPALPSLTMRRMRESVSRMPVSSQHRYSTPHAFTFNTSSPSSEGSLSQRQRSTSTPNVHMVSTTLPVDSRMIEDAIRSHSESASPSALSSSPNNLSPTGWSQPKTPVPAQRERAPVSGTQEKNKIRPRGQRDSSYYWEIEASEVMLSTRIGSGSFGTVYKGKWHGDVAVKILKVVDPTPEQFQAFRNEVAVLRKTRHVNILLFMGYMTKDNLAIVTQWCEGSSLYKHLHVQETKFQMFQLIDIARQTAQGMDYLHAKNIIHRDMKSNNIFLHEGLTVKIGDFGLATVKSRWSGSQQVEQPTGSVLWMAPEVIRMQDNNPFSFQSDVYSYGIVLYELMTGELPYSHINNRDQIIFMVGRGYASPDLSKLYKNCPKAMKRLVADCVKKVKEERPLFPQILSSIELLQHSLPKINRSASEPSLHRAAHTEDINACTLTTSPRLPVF

SMILES	pIC50 (c-Raf)	pIC50 (B-Raf)
O=C1COc2ccc(C3(O)c4ccccc4C(=O)N3Cc3cc(Br)ccc3F)cc2N1 (stereo not drawn) [Entry 51, 6-{2-[(5-bromo-2-fluorophenyl)methyl]-1-hydroxy-3-oxo-2,3-dihydro-1H-isoindol-1-yl}-2H-1,4-benzoxazin-3(4H)-one]	5.00 to 6.00	5.00 to 6.00
O=C1COc2ccc(C3(O)c4ccccc4C(=O)N3Cc3cccc([N+](=O)[O-])c3)cc2N1 (stereo not drawn) [Entry 52, 6-{1-hydroxy-2-[(3-nitrophenyl)methyl]-3-oxo-2,3-dihydro-1H-isoindol-1-yl}-2H-1,4-benzoxazin-3(4H)-one]	5.00 to 6.00	5.00 to 6.00
O=C1COc2ccc(C3(O)c4ccccc4C(=O)N3Cc3cccc(C(F)(F)F)c3)cc2N1 (stereo not drawn) [Entry 53, 6-(1-hydroxy-3-oxo-2-{[3-(trifluoromethyl)phenyl]methyl}-2,3-dihydro-1H-isoindol-1-yl)-2H-1,4-benzoxazin-3(4H)-one]	≤ 5.00	≤ 5.00
COc1cccc(CN2C(=O)c3ccccc3C2(O)c2ccc3c(c2)NC(=O)CO3)c1OC (stereo not drawn) [Entry 54]	≤ 5.00	≤ 5.00
O=C1COc2ccc(C3(O)c4ccccc4C(=O)N3Cc3cccc(I)c3)cc2N1 (stereo not drawn) [Entry 55, 6-{1-hydroxy-2-[(3-iodophenyl)methyl]-3-oxo-2,3-dihydro-1H-isoindol-1-yl}-2H-1,4-benzoxazin-3(4H)-one]	5.00 to 6.00	5.00 to 6.00
O=C1COc2ccc(C3(O)c4ccccc4C(=O)N3Cc3cccc(OC(F)(F)F)c3)cc2N1 (stereo not drawn) [Entry 56, 6-[1-hydroxy-3-oxo-2-({3-[(trifluoromethyl)oxy]phenyl}methyl)-2,3-dihydro-1H-isoindol-1-yl]-2H-1,4-benzoxazin-3(4H)-one]	≤ 5.00	≤ 5.00
CSc1ccccc1CN1C(=O)c2ccccc2C1(O)c1ccc2c(c1)NC(=O)CO2 (stereo not drawn) [Entry 57, 6-(1-hydroxy-2-{[2-(methylthio)phenyl]methyl}-3-oxo-2,3-dihydro-1H-isoindol-1-yl)-2H-1,4-benzoxazin-3(4H)-one]	≤ 5.00	≤ 5.00
O=C1COc2ccc(C3(O)c4ccccc4C(=O)N3c3ccc(F)c(F)c3)cc2N1 (stereo not drawn) [Entry 58, 6-[2-(3,4-difluorophenyl)-1-hydroxy-3-oxo-2,3-dihydro-1H-isoindol-1-yl]-2H-1,4-benzoxazin-3(4H)-one]	5.00 to 6.00	5.00 to 6.00
CC(C)c1cccc(N2C(=O)c3ccccc3C2(O)c2ccc3c(c2)NC(=O)CO3)c1 (stereo not drawn) [Entry 59, 6-{1-hydroxy-2-[3-(1-methylethyl)phenyl]-3-oxo-2,3-dihydro-1H-isoindol-1-yl}-2H-1,4-benzoxazin-3(4H)-one]	6.00 to 7.00	6.00 to 7.00
O=C1COc2ccc(C3(O)c4ccccc4C(=O)N3c3cccc(OC(F)(F)F)c3)cc2N1 (stereo not drawn) [Entry 60, 6-(1-hydroxy-3-oxo-2-{3-[(trifluoromethyl)oxy]phenyl}-2,3-dihydro-1H-isoindol-1-yl)-2H-1,4-benzoxazin-3(4H)-one]	≤ 5.00	≤ 5.00
O=C1COc2ccc(C3(O)c4ccccc4C(=O)N3c3cccc(C(F)(F)F)c3)cc2N1 (stereo not drawn) [Entry 61, 6-{1-hydroxy-3-oxo-2-[3-(trifluoromethyl)phenyl]-2,3-dihydro-1H-isoindol-1-yl}-2H-1,4-benzoxazin-3(4H)-one]	6.00 to 7.00	5.00 to 6.00
NS(=O)(=O)c1cccc(N2C(=O)c3ccccc3C2(O)c2ccc3c(c2)NC(=O)CO3)c1 (stereo not drawn) [Entry 62, 3-[1-hydroxy-3-oxo-1-(3-oxo-3,4-dihydro-2H-1,4-benzoxazin-6-yl)-1,3-dihydro-2H-isoindol-2-yl]benzenesulfonamide]	5.00 to 6.00	≤ 5.00
COc1ccc(Cl)cc1N1C(=O)c2ccccc2C1(O)c1ccc2c(c1)NC(=O)CO2 (stereo not drawn) [Entry 63, 6-{2-[5-chloro-2-(methyloxy)phenyl]-1-hydroxy-3-oxo-2,3-dihydro-1H-isoindol-1-yl}-2H-1,4-benzoxazin-3(4H)-one]	≤ 5.00	5.00 to 6.00
O=C1COc2ccc(C3(O)c4ccccc4C(=O)N3c3ccc(F)c(C(F)(F)F)c3)cc2N1 (stereo not drawn) [Entry 64, 6-{2-[4-fluoro-3-(trifluoromethyl)phenyl]-1-hydroxy-3-oxo-2,3-dihydro-1H-isoindol-1-yl}-2H-1,4-benzoxazin-3(4H)-one]	≤ 5.00	≤ 5.00
O=C1c2ccccc2C(O)(c2ccc3cc[nH]c3c2)N1Cc1ccccc1 (stereo not drawn) [Entry 65, 3-hydroxy-3-(1H-indol-6-yl)-2-(phenylmethyl)-2,3-dihydro-1H-isoindol-1-one]	≤ 5.00	≤ 5.00
O=C1COc2ccc(C3(O)c4ccccc4C(=O)N3c3cc(F)cc(I)c3)cc2N1 (stereo not drawn) [Entry 66, 6-[2-(3-fluoro-5-iodophenyl)-1-hydroxy-3-oxo-2,3-dihydro-1H-isoindol-1-yl]-2H-1,4-benzoxazin-3(4H)-one]	5.00 to 6.00	5.00 to 6.00
Nc1cccc(N2C(=O)c3ccccc3C2(O)c2ccc3c(c2)NC(=O)CO3)c1 (stereo not drawn) [Entry 67, 6-[2-(3-aminophenyl)-1-hydroxy-3-oxo-2,3-dihydro-1H-isoindol-1-yl]-2H-1,4-benzoxazin-3(4H)-one]	6.00 to 7.00	6.00 to 7.00
O=C1COc2ccc(C3(O)c4ccccc4C(=O)N3c3cc(F)cc(F)c3)cc2N1 (stereo not drawn) [Entry 68, 6-[2-(3,5-difluorophenyl)-1-hydroxy-3-oxo-2,3-dihydro-1H-isoindol-1-yl]-2H-1,4-benzoxazin-3(4H)-one]	5.00 to 6.00	5.00 to 6.00
CS(=O)(=O)c1cccc(N2C(=O)c3ccccc3C2(O)c2ccc3c(c2)NC(=O)CO3)c1 (stereo not drawn) [Entry 69, 6-{1-hydroxy-2-[3-(methylsulfonyl)phenyl]-3-oxo-2,3-dihydro-1H-isoindol-1-yl}-2H-1,4-benzoxazin-3(4H)-one]	≤ 5.00	≤ 5.00
CCOC(=O)c1cccc(N2C(=O)c3ccccc3C2(O)c2ccc3c(c2)NC(=O)CO3)c1 (stereo not drawn) [Entry 70, ethyl 3-[1-hydroxy-3-oxo-1-(3-oxo-3,4-dihydro-2H-1,4-benzoxazin-6-yl)-1,3-dihydro-2H-isoindol-2-yl]benzoate]	≤ 5.00	≤ 5.00
N#Cc1cccc(N2C(=O)c3ccccc3C2(O)c2ccc3c(c2)NC(=O)CO3)c1 (stereo not drawn) [Entry 71, 3-[1-hydroxy-3-oxo-1-(3-oxo-3,4-dihydro-2H-1,4-benzoxazin-6-yl)-1,3-dihydro-2H-isoindol-2-yl]benzonitrile]	5.00 to 6.00	5.00 to 6.00
O=C1COc2ccc(C3(O)c4ccccc4C(=O)N3c3ccccc3Cl)cc2N1 (stereo not drawn) [Entry 72, 6-[2-(2-chlorophenyl)-1-hydroxy-3-oxo-2,3-dihydro-1H-isoindol-1-yl]-2H-1,4-benzoxazin-3(4H)-one]	5.00 to 6.00	5.00 to 6.00
Nc1cc(Cl)cc(N2C(=O)c3ccccc3C2(O)c2ccc3c(c2)NC(=O)CO3)c1 (stereo not drawn) [Entry 73, 6-[2-(3-amino-5-chlorophenyl)-1-hydroxy-3-oxo-2,3-dihydro-1H-isoindol-1-yl]-2H-1,4-benzoxazin-3(4H)-one]	> 7.00	> 7.00
Cc1ccc(Cl)cc1N1C(=O)c2ccccc2C1(O)c1ccc2c(c1)NC(=O)CO2 (stereo not drawn) [Entry 74, 6-[2-(5-chloro-2-methylphenyl)-1-hydroxy-3-oxo-2,3-dihydro-1H-isoindol-1-yl]-2H-1,4-benzoxazin-3(4H)-one]	> 7.00	> 7.00
Cc1c(Cl)cccc1N1C(=O)c2ccccc2C1(O)c1ccc2c(c1)NC(=O)CO2 (stereo not drawn) [Entry 75, 6-[2-(3-chloro-2-methylphenyl)-1-hydroxy-3-oxo-2,3-dihydro-1H-isoindol-1-yl]-2H-1,4-benzoxazin-3(4H)-one]	6.00 to 7.00	6.00 to 7.00
CCc1cccc(N2C(=O)c3ccccc3C2(O)c2ccc3c(c2)NC(=O)CO3)c1 (stereo not drawn) [Entry 76, 6-[2-(3-ethylphenyl)-1-hydroxy-3-oxo-2,3-dihydro-1H-isoindol-1-yl]-2H-1,4-benzoxazin-3(4H)-one]	6.00 to 7.00	6.00 to 7.00
C#Cc1cccc(N2C(=O)c3ccccc3C2(O)c2ccc3c(c2)NC(=O)CO3)c1 (stereo not drawn) [Entry 77, 6-[2-(3-ethynylphenyl)-1-hydroxy-3-oxo-2,3-dihydro-1H-isoindol-1-yl]-2H-1,4-benzoxazin-3(4H)-one]	6.00 to 7.00	6.00 to 7.00
O=C1COc2ccc(C3(O)c4ccccc4C(=O)N3c3cccc(O)c3)cc2N1 (stereo not drawn) [Entry 78, 6-[1-hydroxy-2-(3-hydroxyphenyl)-3-oxo-2,3-dihydro-1H-isoindol-1-yl]-2H-1,4-benzoxazin-3(4H)-one]	5.00 to 6.00	5.00 to 6.00
O=C1COc2ccc(C3(O)c4ccccc4C(=O)N3c3cccc(Oc4ccccc4)c3)cc2N1 (stereo not drawn) [Entry 79, 6-{1-hydroxy-3-oxo-2-[3-(phenyloxy)phenyl]-2,3-dihydro-1H-isoindol-1-yl}-2H-1,4-benzoxazin-3(4H)-one]	6.00 to 7.00	5.00 to 6.00
O=C1COc2ccc(C3(O)c4ccccc4C(=O)N3c3cccc(OCc4ccccc4)c3)cc2N1 (stereo not drawn) [Entry 80, 6-(1-hydroxy-3-oxo-2-{3-[(phenylmethyl)oxy]phenyl}-2,3-dihydro-1H-isoindol-1-yl)-2H-1,4-benzoxazin-3(4H)-one]	≤ 5.00	≤ 5.00
